{
  "source": "patent US10111893B2",
  "about": "“Calmangafodipir, a new chemical entity, and other mixed metal complexes, methods of preparation, compositions, and methods of treatment” (priority 2012, dated 2018)",
  "key": {"[1]": {"system": "CT26 (mouse colon carcinoma) cells", "assay": "MTT viability assay, cytotoxic activity", "details": "48 h, 1-1,000 μM", "protocol": "The viability of cells was measured using the MTT assay. […] The viability of the cells was then assessed by adding 5 mg/ml methylthiazoletetrazolium (MTT) to a final concentration of 0.5 mg/ml and incubating cells for a further 4 h at 37° C. The blue formazan that is formed by mitochondrial dehydrogenases of viable cells was then dissolved over night at 37° C. by adding 10% SDS and 10 mM HCl to a final concentration of 5% SDS and 5 mM HCl. Finally, the absorbance of the solution was read at 570 nm with a reference at 670 nm in a microplate reader Spectramax 340 (Molecular Devices, Sunnyvale, Calif., USA) connected to an Apple Macintosh computer running the program Softmax Pro V1.2.0 (Molecular Devices, Sunnyvale, Calif., USA)."}, "[2]": {"system": "white blood cells (WBC), lymphocytes (LYM), neutrophils (NEU)", "assay": "Myelosuppressive effects of carboplatin in balb/c mice, cytoprotection", "type": "in vivo", "details": "carboplatin 125 mg/kg alone, 3 days after", "description": "A control group received vehicle (saline) and saline instead of carboplatin."}, "pig heart": {"system": "pig heart", "details": "pigs; cited from earlier work"}, "[3]": {"details": "cited from earlier work"}, "human U1810 NSCLC cells": {"system": "human U1810 NSCLC cells", "assay": "MTT viability assay, cytotoxic activity", "type": "cell-based", "details": "48 h, MTT, read-out: IC50 (concentration causing 50% inhibition of viability)", "protocol": "The viability of U1810 or LLC1 cells in the presence of increasing concentrations of calmangafodipir or mangafodipir is presented as concentration response curves (mean±S.D.). The individual curves were fitted to the sigmoidal variable slope response logistic equation (Graphpad Prism, version 5.02). From this analysis the concentrations causing 50% inhibition (IC50) of the test substances were calculated."}, "[4]": {"details": "humans, diagnostic MR imaging dose iv; cited from earlier work"}, "[5]": {"details": "one patient, cited from earlier work"}, "[6]": {"details": "rats; cited from earlier work"}, "[7]": {"details": "rats, single 5 μmol/kg b.w., cited from earlier work"}, "[8]": {"assay": "Manganese urine excretion 0-24 h after intravenous injection", "details": "rats", "method": "To obtain basal content of manganese (Mn) and zinc (Zn) in urine, two additional (control) rats received 0.25 ml saline and were placed in metabolic cages for urine collection over the same period of time. The urine samples were then stored at −80° C. until Mn analysis. Before analysis, the samples were thawed and extensively shaken to obtain homogenous samples. A five ml aliquot was taken from each sample and 5 ml concentrated nitric acid was added. The samples were then resolved in a microwave oven and thereafter diluted with distilled water to a final volume of 50 ml. The Mn content of each sample was analyzed by ICP-MS (Inductively Coupled Plasma Mass Spectrometry). Identical samples of calmangafodipir and mangafodipir as those injected in the rats (i.e., 0.25 ml) were withdrawn and injected into test tubes. These samples were treated in an identical manner to that of the urine samples and analyzed for their Mn content. Results are presented as total 0-24 h urine Mn content (expressed as μmol/kg±S.E.M.) and as percentage (±S.E.M.) of the injected dose. […] A p-value lower than 0.05 was considered as a statistically significant difference."}, "white blood cells (WBC)": {"system": "white blood cells (WBC)", "assay": "Myelosuppressive effects of oxaliplatin in balb/c mice, cytoprotection", "method": "One day before (baseline) as well as 3 and 6 days after oxaliplatin treatment 50 μl EDTA blood samples were taken from the orbital venous plexus with a glass capillary. The blood samples were analyzed using the automated system CELL-DYN® Emerald (Abbott Diagnostics) for the content of white blood cells (WBC), lymphocytes (LYM), neutrophils (NEU) and platelets (PLC). […] A control group received instead of oxaliplatin vehicle (5% glucose) and saline. […] The statistical differences between treatment groups, where appropriate, were tested by an unpaired Student's t-test. A p-value lower than 0.05 was considered as a statistically significant difference."}, "[9]": {"assay": "Mn content of brain, pancreas and liver after repeated intravenous injections", "details": "rats, 39 iv doses, 72 μmol/kg manganese each, 3 times a week for 13 weeks", "method": "After the 13-week administration period, the rats were sacrificed and the brains and pancreas were dissected out and approximately 0.5 g samples were stored frozen until Mn analysis. The Mn content of each sample was analyzed by ICP-MS. Results are expressed as μg/g wet weight±S.E.M. Statistical difference between the mangafodipir group and the calmangafodipir group, with respect to Mn content, was tested by a paired Student's t-test. A p-value lower than 0.05 was considered as a statistically significant difference."}, "CT26 tumors": {"system": "CT26 tumors", "assay": "Antitumor activity of oxaliplatin with or without calmangafodipir in CT26-bearing mice", "type": "in vivo, balb/c mice", "details": "single treatment 20 mg/kg oxaliplatin i.p., day 10", "protocol": "When the cells reached ˜50% confluency they were harvested by trypsinization. Briefly, cells were washed with phosphate based saline (PBS) (pH 7.3) and exposed to 0.05% Trypsin/0.53 mM EDTA at 37° C. for ˜5 min. The trypsinization was stopped by adding RPMI1640 culture medium. Cells were counted and centrifuged at 200×g for 5 min. Thereafter, they were washed in PBS, centrifuged again and resuspended in PBS at a concentration of 2×10^6/350 μl for injection into mice. Balb/c female mice between 6 and 8 weeks of age were used, as described by Laurent et al., 2005. Briefly, each mouse was injected subcutaneously in the back of the neck with 2×10^6 of CT26 cells at day 0. After 7 days (day 7) when the tumors were detectable, the tumor size was determined with a caliper and mice were grouped (5 in each group) so that the sizes of the tumors were not statistically different by group. Oxaliplatin±calmangafodipir (lot #11AK0105B) was injected and one group of mice received vehicle (0.9% saline+5% glucose) treatment alone. In a first series of experiments, mice were injected i.v. with saline or 50 mg/kg calmangafodipir 30 minutes prior to i.p. administration of 20 mg/kg oxaliplatin (diluted in 5% glucose) or 5% glucose. These mice received in addition saline or 50mg/kg calmangafodipir 24 hours later (day 8). In another series of experiments, mice were injected i.v. with saline or 5 mg/kg calmangafodipir 30 minutes […] (diluted in 5% glucose) or 5% glucose, and saline or 5 mg/kg calmangafodipir 24 hours later (day 8). The mice were killed on day 10 and the tumors were excised and wet weights were determined."}},
  "note": "pIC50: −log10 of the molar value. Read-outs that look alike come from different tables or passages of the source.",
  "data": [
    {"smiles": "[Ca+2].[Cl-].[Cl-]", "note": "[CaCl2]", "values": [
      {"measurement": "cytotoxic activity", "setting": "[1]", "value": "Neither ZnDPDP, ZnPLED nor CaCl2 displayed any cytotoxic activity at all"}
    ]},
    {"smiles": "N.N.O=C([O-])C1(C(=O)[O-])CCC1.[Pt+2]", "note": "[Carboplatin, carboplatin]", "values": [
      {"measurement": "decrease in WBC, as well as in NEU and LYM", "setting": "[2]", "value": "approximately 50%"}
    ]},
    {"smiles": "Cc1ncc(CO)c(CN(CCN(CC(=O)O)Cc2c(CO)cnc(C)c2O)CC(=O)O)c1O", "note": "[MnPLED, N,N′-dipyridoxyl ethylenediamine-N,N′-diacetic acid]", "values": [
      {"measurement": "cytotoxic activity relative to mangafodipir", "setting": "[1]", "value": "~10", "unit": "times"},
      {"measurement": "protection against ischemia-reperfusion-induced myocardial infarction", "setting": "pig heart", "value": "significantly reduced myocardial infarct size"}
    ]},
    {"smiles": "Cc1ncc(CO)c(CN(CCN(CC(=O)[O-])Cc2c(CO)cnc(C)c2O)CC(=O)[O-])c1O.[Zn+2]", "note": "[ZnPLED]", "values": [
      {"measurement": "cytotoxic activity", "setting": "[1]", "value": "Neither ZnDPDP, ZnPLED nor CaCl2 displayed any cytotoxic activity at all"},
      {"measurement": "stability of complex relative to manganese counterpart", "setting": "[3]; higher stability", "value": 1000, "unit": "times"}
    ]},
    {"smiles": "Cc1ncc(COP(=O)(O)O)c(CN(CCN(CC(=O)O)Cc2c(COP(=O)(O)O)cnc(C)c2O)CC(=O)O)c1O", "note": "[fodipir, N,N′-bis-(pyridoxal-5-phosphate)-ethylenediamine-N,N′-diacetic acid]", "values": [
      {"measurement": "cytotoxic activity relative to mangafodipir", "setting": "[1]", "value": "about 20 times"},
      {"measurement": "affinity of zinc relative to manganese for the chelator", "setting": "[3]; higher affinity of zinc", "value": "about 1000 times"},
      {"measurement": "affinity of calcium relative to manganese for the chelator", "setting": "[3]; lower affinity of calcium", "value": "about 10^6 times"},
      {"measurement": "affinity of calcium relative to zinc for the chelator", "setting": "[3]; lower affinity of calcium", "value": "about 10^9 times"}
    ]},
    {"smiles": "Cc1ncc(COP(=O)(O)O)c(CN(CCN(CC(=O)O)Cc2c(COP(=O)(O)O)cnc(C)c2O)CC(=O)O)c1O.[Mn]", "note": "[mangafodipir, manganese N,N′-bis-(pyridoxal-5-phosphate)-ethylenediamine-N,N′-diacetic acid]", "values": [
      {"measurement": "pIC50", "setting": "human U1810 NSCLC cells", "value": 3.20},
      {"measurement": "administered manganese released", "setting": "[4]", "value": "about 80%"},
      {"measurement": "neurotoxic symptoms", "setting": "[5]; 14 of 15 cycles with mangafodipir pretreatment, accumulated 1275 mg/m^2 oxaliplatin", "value": "No neurotoxic symptoms were detected"},
      {"measurement": "neutropenia", "setting": "[5]; during chemotherapy cycles", "value": "Neutropenia did not occur"},
      {"measurement": "fetal skeletal abnormalities", "setting": "[6]", "value": "caused fetal skeletal abnormalities in rats"},
      {"measurement": "protection against ischemia-reperfusion-induced myocardial infarction", "setting": "pig heart", "value": "does not protect the pig heart against ischemia-reperfusion-induced myocardial infarction"},
      {"measurement": "Mn content of the pancreas relative to basal value", "setting": "[7]; after 2 hours", "value": "approximately 10 times"},
      {"measurement": "Mn content of the pancreas relative to basal value", "setting": "[7]; after 24 hours", "value": "about 5 times"},
      {"measurement": "Mn recovered in 0-24 h urine", "setting": "[8]; iv 0.25 ml, 2.59 μmol Mn (mangafodipir) or 2.52 μmol Mn (calmangafodipir) injected", "value": "0.60 ± 0.04", "unit": "µmol"},
      {"measurement": "Mn in 0-24 h urine as percentage of the injected dose", "setting": "[8]; iv, basal excretion subtracted", "value": "23.1±1.4", "unit": "%"},
      {"measurement": "fall in WBC", "setting": "white blood cells (WBC); 12.5 mg/kg oxaliplatin plus 1 mg/kg mangafodipir iv", "value": "around 50%"},
      {"measurement": "fall in WBC", "setting": "white blood cells (WBC); 12.5 mg/kg oxaliplatin plus 10 mg/kg mangafodipir iv", "value": "around 50%"},
      {"measurement": "Mn content in the pancreas", "setting": "[9]", "value": "5.54 ± 0.45", "unit": "µmol/kg"}
    ]},
    {"smiles": "O=C1[O][Pt]2([NH][C@@H]3CCCC[C@H]3[NH]2)[O]C1=O", "note": "[oxaliplatin]", "values": [
      {"measurement": "reduction in tumor weight", "setting": "CT26 tumors", "value": "more than 50%"},
      {"measurement": "fall in WBC", "setting": "white blood cells (WBC); single dose 12.5 mg/kg oxaliplatin alone, 6 days after", "value": "more than 80%"}
    ]}
  ]
}
